Measurements: patent publication US20250222044A1, “LIMOSILACTOBACILLUS REUTERI GOLDGUT-LR99 AND APPLICATION THEREOF” (priority 2024, published 2025)

Test system: Limosilactobacillus reuteri GOLDGUT-LR99
Assay: Antibiotic sensitivity, K-B method (Kirby-Bauer method)
Type: cell-based
Design: key to Antibiotic susceptibility test result: R represents resistance; S represents sensitivity
Conditions: susceptibility of the strain to the antibiotic
Protocol: Antibiotic sensitivity of Limosilactobacillus reuteri GOLDGUT-LR99 was determined using the K-B method (Kirby-Bauer method).

| Molecule | Antibiotic susceptibility test result |
| --- | --- |
| Cc1cc(NS(=O)(=O)c2ccc(N)cc2)no1 [Sulfamethoxazole, Compound Sulfamethoxazole] | R |
| CN(C)[C@@H]1C(O)=C(C(N)=O)C(=O)[C@@]2(O)C(O)=C3C(=O)c4c(O)cccc4[C@@](C)(O)[C@H]3C[C@@H]12 [Tetracycline] | S |
| CN[C@H](CC(C)C)C(=O)N[C@H]1C(=O)N[C@@H](CC(N)=O)C(=O)N[C@H]2C(=O)N[C@H]3C(=O)N[C@H](C(=O)N[C@H](C(=O)O)c4cc(O)cc(O)c4-c4cc3ccc4O)[C@H](O)c3ccc(c(Cl)c3)Oc3cc2cc(c3O[C@@H]2O[C@H](CO)[C@@H](O)[C@H](O)[C@H]2O[C@H]2C[C@](C)(N)[C@H](O)[C@H](C)O2)Oc2ccc(cc2Cl)[C@H]1O [Vancomycin] | R |
| Gentamicin | S |
| Neomycin | S |
| Penicillin | S |
| Polymyxin | R |
